# Measurements published in PubChem BioAssay (NCI).
#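 Results reflect a 48-hour exposure of cells in 96-well plates to compound at five concentrations. GI50 = concentration required for 50% inhibition of growth. The concentration for full growth arrest is given as TGI.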
# Tests used:
# Test in all cases: NCI tumour cell line growth inhibition, 48 h
# K-562 leukemia = tested on: K-562 leukemia
# LOX IMVI melanoma = tested on: LOX IMVI melanoma
# NCI-H460 lung = tested on: NCI-H460 lung
# OVCAR-8 ovarian = tested on: OVCAR-8 ovarian
# M14 melanoma = tested on: M14 melanoma
# HOP-62 NSCLC = tested on: HOP-62 NSCLC
# MALME-3M melanoma = tested on: MALME-3M melanoma
# CAKI-1 renal = tested on: CAKI-1 renal
# COLO 205 colon = tested on: COLO 205 colon
# U251 CNS = tested on: U251 CNS
# NCI/ADR-RES ovarian = tested on: NCI/ADR-RES ovarian
# OVCAR-4 ovarian = tested on: OVCAR-4 ovarian
# SF-295 CNS = tested on: SF-295 CNS
# SF-268 CNS = tested on: SF-268 CNS
# NCI-H23 lung = tested on: NCI-H23 lung
# SF-539 CNS = tested on: SF-539 CNS
# T-47D breast = tested on: T-47D breast
# OVCAR-3 ovarian = tested on: OVCAR-3 ovarian
# SR leukemia = tested on: SR leukemia
# HCT-116 colon = tested on: HCT-116 colon
# A549 NSCLC = tested on: A549 NSCLC
# SK-OV-3 ovarian = tested on: SK-OV-3 ovarian
# NCI-H522 lung = tested on: NCI-H522 lung
# RPMI-8226 leukemia = tested on: RPMI-8226 leukemia
# DU-145 prostate = tested on: DU-145 prostate
smiles,measurement,setting,value
Cc1cccc(NC2=C(Cl)C(=O)N(Cc3ccc(Cl)cc3)C2=O)c1,GI50,K-562 leukemia,3.63 µM
same,TGI,K-562 leukemia,13.9 µM
same,GI50,LOX IMVI melanoma,2.88 µM
same,TGI,LOX IMVI melanoma,16 µM
same,GI50,NCI-H460 lung,2.81 µM
same,TGI,NCI-H460 lung,33.9 µM
same,GI50,OVCAR-8 ovarian,6.46 µM
same,TGI,OVCAR-8 ovarian,23.8 µM
same,GI50,M14 melanoma,4.33 µM
same,TGI,M14 melanoma,19.9 µM
same,GI50,HOP-62 NSCLC,3.88 µM
same,TGI,HOP-62 NSCLC,15 µM
same,GI50,MALME-3M melanoma,3.25 µM
same,TGI,MALME-3M melanoma,22.7 µM
same,GI50,CAKI-1 renal,4.61 µM
same,TGI,CAKI-1 renal,24.6 µM
same,GI50,COLO 205 colon,3.08 µM
same,TGI,COLO 205 colon,15 µM
same,GI50,U251 CNS,4.08 µM
same,TGI,U251 CNS,> 100 µM
same,GI50,NCI/ADR-RES ovarian,1.56 µM
same,TGI,NCI/ADR-RES ovarian,8.03 µM
same,GI50,OVCAR-4 ovarian,3.84 µM
same,TGI,OVCAR-4 ovarian,40.4 µM
same,GI50,SF-295 CNS,5.8 µM
same,TGI,SF-295 CNS,27.4 µM
same,GI50,SF-268 CNS,4.93 µM
same,TGI,SF-268 CNS,> 100 µM
same,GI50,NCI-H23 lung,1.64 µM
same,TGI,NCI-H23 lung,10.7 µM
same,GI50,SF-539 CNS,2.11 µM
same,TGI,SF-539 CNS,13.6 µM
same,GI50,T-47D breast,3.47 µM
same,TGI,T-47D breast,28.9 µM
same,GI50,OVCAR-3 ovarian,7.19 µM
same,TGI,OVCAR-3 ovarian,21 µM
same,GI50,SR leukemia,1.79 µM
same,TGI,SR leukemia,4.88 µM
same,GI50,HCT-116 colon,2.94 µM
same,TGI,HCT-116 colon,10.8 µM
same,GI50,A549 NSCLC,12.5 µM
same,TGI,A549 NSCLC,34.2 µM
same,GI50,SK-OV-3 ovarian,3.51 µM
same,TGI,SK-OV-3 ovarian,18.7 µM
same,GI50,NCI-H522 lung,3.09 µM
same,TGI,NCI-H522 lung,13.1 µM
same,GI50,RPMI-8226 leukemia,1.07 µM
same,TGI,RPMI-8226 leukemia,3.2 µM
same,GI50,DU-145 prostate,9.97 µM
same,TGI,DU-145 prostate,60.2 µM
